In ChEMBL document CHEMBL4020719, “Synthesis and biological evaluation of novel indole-pyrimidine hybrids bearing morpholine and thiomorpholine moieties” (Eur J Med Chem, 2017):

How the values were obtained:
HCT-116 [1] = assay: cells; conditions: Homo sapiens, HCT-116, 48 h
MCF7 = assay: cells; conditions: Homo sapiens, MCF7, 48 h
MDA-MB-231 = assay: Antiproliferative activity against human MDA-MB-231 cells after 48 hrs by MTT assay; type: functional, cell-based; conditions: MDA-MB-231, 48 h
HeLa [2] = assay: cells; conditions: Homo sapiens, 48 h
Sus scrofa = species on record: Sus scrofa; assay: Inhibition of pig brain tubulin polymerization at 10 uM by spectrophotometric analysis
HEK293 = assay: Antiproliferative activity against HEK293 cells after 48 hrs by MTT assay; type: cell-based; conditions: Homo sapiens, HEK293, 48 h
[3] = Inhibition of pig brain tubulin polymerization by spectrophotometric analysis; design: species or system Sus scrofa
HCT-116 [4] = assay: Potency index, ratio of CA-4 IC50 to compound IC50 for human HCT116 cells; type: functional
HeLa [5] = assay: Cell cycle arrest in human HeLa cells assessed as accumulation at G2/M phase after 12 hrs by FACS analysis; type: functional, cell-based
HeLa [6] = assay: Cell cycle arrest in human HeLa cells assessed as accumulation at G2/M phase at 1.25 uM after 12 hrs by FACS analysis (reference value: 9.12%); type: functional
HeLa [7] = assay: Cell cycle arrest in human HeLa cells assessed as accumulation at G0/G1 phase at 5 uM after 12 hrs by FACS analysis (reference value: 61.74%); type: functional
HeLa [8] = assay: Cell cycle arrest in human HeLa cells assessed as accumulation at S phase at 5 uM after 12 hrs by FACS analysis (reference value: 29.14%); type: functional
HeLa [9] = assay: Cell cycle arrest in human HeLa cells assessed as accumulation at G2/M phase at 2.5 uM after 12 hrs by FACS analysis (reference value: 9.12%); type: functional
HeLa [10] = assay: Cell cycle arrest in human HeLa cells assessed as accumulation at G0/G1 phase at 2.5 uM after 12 hrs by FACS analysis (reference value: 61.74%); type: functional
HeLa [11] = assay: Cell cycle arrest in human HeLa cells assessed as accumulation at G2/M phase at 5 uM after 12 hrs by FACS analysis (reference value: 9.12%); type: functional
HeLa [12] = assay: Cell cycle arrest in human HeLa cells assessed as accumulation at G0/G1 phase at 1.25 uM after 12 hrs by FACS analysis (reference value: 61.74%); type: functional
HeLa [13] = assay: Cell cycle arrest in human HeLa cells assessed as accumulation at S phase at 1.25 uM after 12 hrs by FACS analysis (reference value: 29.14%); type: functional
HeLa [14] = assay: Cell cycle arrest in human HeLa cells assessed as accumulation at S phase at 2.5 uM after 12 hrs by FACS analysis (reference value: 29.14%); type: functional

Compound	IC50 (HCT-116 [1]) [µM]	IC50 (MCF7) [µM]	IC50 (MDA-MB-231) [µM]	IC50 (HeLa [2]) [µM]	inhibition (Sus scrofa) [%]	other results
O=C(c1cccs1)c1[nH]c2cc(Cl)ccc2c1Nc1nc(N2CCOCC2)ncc1[N+](=O)[O-]	> 100	69.4	> 100	94.7	19	
COc1ccc(C(=O)c2[nH]c3ccccc3c2Nc2nc(N3CCSCC3)ncc2[N+](=O)[O-])cc1	> 100	> 100	> 100	> 100		
O=C(c1ccccc1)c1[nH]c2ccccc2c1Nc1nc(N2CCSCC2)ncc1[N+](=O)[O-]	> 100	> 100	> 100	> 100	2	
O=C(c1ccc(-c2ccccc2)cc1)c1[nH]c2ccccc2c1Nc1nc(N2CCOCC2)ncc1[N+](=O)[O-]	9.48	0.29	10.3	4.04	42	IC50 (HEK293): 78.6 µM; IC50 [3]: 19.3 µM
CN1CCN(c2ncc([N+](=O)[O-])c(Nc3c(C(=O)c4cccs4)[nH]c4cc(Cl)ccc34)n2)CC1	17.4	13.9	5.01	19.9	47	IC50 (HEK293): > 100 µM
COc1ccc(/C=C\c2cc(OC)c(OC)c(OC)c2)cc1O [COMBRETASTATIN A4]	6.1	0.041	270	0.23	80	
CCOC(=O)n1c(C(=O)c2ccc(OC)cc2)c(Nc2nc(N3CCOCC3)ncc2[N+](=O)[O-])c2ccccc21	2.99	2.13	3.01	5.52	19	IC50 (HEK293): > 100 µM; Ratio IC50 (HCT-116 [4]): 2
O=C(c1[nH]c2ccccc2c1Nc1nc(N2CCOCC2)ncc1[N+](=O)[O-])C1CC1	73.5	89.4	89.4	49.6		
CCOC(=O)n1c(C(=O)c2ccccc2)c(Nc2nc(N3CCOCC3)ncc2[N+](=O)[O-])c2ccc(Cl)cc21	80.6	78.4	35.8	> 100		
O=C(c1cccc(Br)c1)c1[nH]c2ccccc2c1Nc1nc(N2CCOCC2)ncc1[N+](=O)[O-]	11.4	1.42	9.42	2.51	36	Activity (HeLa [5]): Dose-dependent effect; Activity (HeLa [6]): 12.63%; Activity (HeLa [7]): 5.02%; Activity (HeLa [8]): 6.4%; IC50 (HEK293): 10.1 µM; Activity (HeLa [9]): 58.34%; Activity (HeLa [10]): 15.31%; Activity (HeLa [11]): 88.58%; Activity (HeLa [12]): 53.32%; Activity (HeLa [13]): 34.05%; Activity (HeLa [14]): 26.35%
O=C(c1ccc(-c2ccccc2)cc1)c1[nH]c2cc(Cl)ccc2c1Nc1nc(N2CCOCC2)ncc1[N+](=O)[O-]	> 100	42.7	58.7	16.6		
O=C(c1ccccc1)c1[nH]c2ccccc2c1Nc1nc(N2CCOCC2)ncc1[N+](=O)[O-]	55.8	89.2	92.6	82.5	23	
O=C(c1ccc(Br)cc1)c1[nH]c2ccccc2c1Nc1nc(N2CCSCC2)ncc1[N+](=O)[O-]	> 100	> 100	> 100	> 100		

Now from value to compound, other results behind:

IC50 (HCT-116 [1]) [µM]	IC50 (MCF7) [µM]	IC50 (MDA-MB-231) [µM]	IC50 (HeLa [2]) [µM]	inhibition (Sus scrofa) [%]	Compound	other results
33.3	85.4	34.1	54.3		O=C(c1ccc(Br)cc1)c1[nH]c2ccccc2c1Nc1nc(N2CCOCC2)ncc1[N+](=O)[O-]	
> 100	98.7	> 100	> 100		Cc1ccc2c(Nc3nc(N4CCOCC4)ncc3[N+](=O)[O-])c(C(=O)c3ccc(Cl)cc3)[nH]c2c1	
80.6	56.8	76.3	47.1		Cc1ccc2c(Nc3nc(N4CCOCC4)ncc3[N+](=O)[O-])c(C(=O)c3ccccc3)[nH]c2c1	
39.1	> 100	93.7	> 100		Cc1ccc2c(Nc3nc(N4CCOCC4)ncc3[N+](=O)[O-])c(C(=O)c3cccs3)[nH]c2c1	
> 100	60.4	> 100	7.46		Cc1ccc2c(Nc3nc(N4CCOCC4)ncc3[N+](=O)[O-])c(C(=O)c3ccc(-c4ccccc4)cc3)[nH]c2c1	
> 100	> 100	> 100	> 100	9	O=C(c1ccccc1)c1[nH]c2cc(Cl)ccc2c1Nc1nc(N2CCOCC2)ncc1[N+](=O)[O-]	
> 100	> 100	> 100	> 100		Cc1ccc2c(Nc3nc(N4CCOCC4)ncc3[N+](=O)[O-])c(C(=O)c3ccc(Br)cc3)[nH]c2c1	
24.4	35	> 100	47.1	14	COc1ccc(C(=O)c2[nH]c3cc(Cl)ccc3c2Nc2nc(N3CCOCC3)ncc2[N+](=O)[O-])cc1	
44	> 100	89.4	90.5		COc1ccc(C(=O)c2[nH]c3cc(C)ccc3c2Nc2nc(N3CCOCC3)ncc2[N+](=O)[O-])cc1	
6.4	57.1	8.69	4.32	14	COc1ccc(C(=O)c2[nH]c3ccccc3c2Nc2nc(N3CCOCC3)ncc2[N+](=O)[O-])cc1	IC50 (HEK293): 14.8 µM
> 100	83.7	> 100	> 100		O=C(c1ccc(Cl)cc1)c1[nH]c2cc(Cl)ccc2c1Nc1nc(N2CCOCC2)ncc1[N+](=O)[O-]	
